Measured values reported in US20050282818A1, “Ubiquitin ligase inhibitors” (Rigel Pharmaceuticals, Inc., priority 2004, published 2005).
pIC50: −log10 of the molar value. Read-outs that look alike come from different tables or passages of the source.

What was measured:
H1299 cells = assay: Cell proliferation PAD assay, H1299; type: cell-based; conditions: Homo sapiens, 48 hours
Method in brief: (§1)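 2,000 cells/well; compound added at 24 h (duplicate, 6.3-fold series, 10 mM stock, 500× dilution into wells); 48 h, 37 °C/5% CO2. Formamide fix, DAPI stain, image-based counts of live (proliferation), apoptotic, dead cells.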

TRAF6/Uev1A/Ubc13 = biological target: T1, TRAF6/Uev1A/Ubc13 (Homo sapiens, UniProt Q9Y4K3); assay: TRAF6/Uev1A/Ubc13 plate-based ubiquitin ligase assay; type: biochemical
T1 sequence (Q9Y4K3 1-522): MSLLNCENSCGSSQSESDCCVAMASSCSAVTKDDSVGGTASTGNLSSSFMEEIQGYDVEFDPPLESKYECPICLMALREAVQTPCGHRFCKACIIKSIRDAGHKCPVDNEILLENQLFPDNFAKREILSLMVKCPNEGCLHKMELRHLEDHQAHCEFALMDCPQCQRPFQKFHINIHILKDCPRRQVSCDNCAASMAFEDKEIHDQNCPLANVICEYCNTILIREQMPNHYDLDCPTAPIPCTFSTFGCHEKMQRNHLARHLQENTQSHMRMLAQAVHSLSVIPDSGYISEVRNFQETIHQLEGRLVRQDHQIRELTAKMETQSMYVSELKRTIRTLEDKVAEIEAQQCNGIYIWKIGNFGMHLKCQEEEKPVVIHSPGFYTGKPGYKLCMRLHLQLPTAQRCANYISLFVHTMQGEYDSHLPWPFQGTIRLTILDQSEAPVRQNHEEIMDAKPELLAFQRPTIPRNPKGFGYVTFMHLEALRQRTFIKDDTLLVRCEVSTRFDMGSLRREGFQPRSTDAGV
Protocol: For the assays described below, the TRAF6/Uev1A/UBC13 assay is the biochemical plate-based assay of TRAF6 ligase activity using Ubc13 as the E2 enzyme. The gel-based assay is the biochemical solution-based TRAF6 ligase assay (by SDS-PAGE and Western blot) to confirm the plate-based ELISA assay. The APC assay is an assay which is another E3 ligase (APC2/APC11) biochemical assay.
A 96-well Ni-plate was blocked with 100 μl of 1% casein in PBS for 1 hour at room temperature. The plates were then washed three times with 200 μl of 1×PBS and 80 μl of a reaction buffer was added per well which contained 50 ng of Flag-ubiquitin, 50 ng of His-ubiquitin, 62.5 mM Tris pH 7.5, 6.25 mM MgCl2, 1.0 mM DTT, and 2 μM ATP. To each well was added 10 μl of a solution of the compound in DMSO. The reaction was started by adding 10 μl of a solution consisting of 10 ng human E1, 25 ng each of Uev1a and Ubc13, and 100 ng TRAF6 in the reaction buffer. The plates were shaken for 10 minutes and incubate at room temperature for 1 hour. After the incubation, the plates were washed three times with 200 μl 1×PBS in 0.05% Tween and 100 μl of an antibody mix consisting of anti-Flag (1:30,000 dilution; Sigma F-3165) and anti-Mouse IgG-HRP (1/150,000 dilution; Jackson Immunoresearch #115-035-146) in 1×PBS with 0.25% BSA. The plates were then incubated for another 1 hour at room temperature, and after incubation the plate was washed three times with 200 μl 1×PBS with 0.05% Tween. The amount of ubiquitin was measured by adding 100 μl of Lumino substrate (1:5 dilution) and reading the luminescence with a fluorimeter.
Table 2 below illustrates the inhibitory activity of the compounds of the invention determined by the TRAF6/Uev1A/Ubc13 assay as well as in the ICAM, APC and the ROC1/CUL1 Ubiquitin Ligase Assay (SCF Assay). The IC50 values were determined using a various concentrations of the compounds.

A549 cells = assay: Cell proliferation PAD assay, A549; type: cell-based; conditions: Homo sapiens, 48 hours
Method in brief: as §1

[1] = NCI-H1299, 6pt, read-out: H1299 6pt
[2] = NCI-H1299, 3pt, read-out: H1299 3pt

SMILES	pIC50 (H1299 cells; [1])	pIC50 (TRAF6/Uev1A/Ubc13)	pIC50 (A549 cells; 6pt, read-out: A549 6pt)	pIC50 (H1299 cells; [2])	pIC50 (A549 cells; 3pt, read-out: A549 3pt)
COC(=O)c1ccc(Nc2ccc3nonc3c2S(=O)(=O)Nc2ccc(C(=O)OC)cc2)cc1 [compound 10, methyl 4-{[(5-{[4-(methoxycarbonyl)phenyl]amino}-2,1,3-benzoxadiazol-4-yl)sulfonyl]amino}benzoate]	≤ 4.70	≤ 4.70	≤ 4.70	–	–
O=S(=O)(Nc1cccc2cnccc12)c1cccc2nonc12 [compound 12, N-isoquinolin-5-yl-2,1,3-benzoxadiazole-4-sulfonamide]	–	≤ 4.70	–	≤ 4.70	≤ 4.70
Cc1ccc(F)cc1NS(=O)(=O)c1cccc2nonc12 [compound 13, N-(5-fluoro-2-methylphenyl)-2,1,3-benzoxadiazole-4-sulfonamide]	–	≤ 4.70	–	≤ 4.70	≤ 4.70
O=S(=O)(Nc1ccc(Oc2ncc(C(F)(F)F)cc2Cl)cc1)c1cccc2nonc12 [compound 62, N-(4-{[3-chloro-5-(trifluoromethyl)pyridin-2-yl]oxy}phenyl)-2,1,3-benzoxadiazole-4-sulfonamide]	–	≤ 4.70	–	≤ 4.70	≤ 4.70
CC(C)(C)OC(=O)N1CCN(c2ccc([N+](=O)[O-])c3nonc23)CC1 [compound 72, Tert-butyl 4-(7-nitro-2,1,3-benzoxadiazol-4-yl)piperazine-1-carboxylate]	–	≤ 4.70	–	≤ 4.70	≤ 4.70
O=S(=O)(Nc1cccc2nonc12)c1ccc(Oc2ccncc2)cc1 [compound 80, N-2,1,3-benzoxadiazol-4-yl-4-(pyridin-4-yloxy)benzenesulfonamide]	–	≤ 4.70	–	≤ 4.70	≤ 4.70
O=[N+]([O-])c1ccc(N2CCN(CCN3CCOCC3)CC2)c2nonc12 [compound 85, 4-[4-(2-morpholin-4-ylethyl)piperazin-1-yl]-7-nitro-2,1,3-benzoxadiazole]	–	≤ 4.70	–	≤ 4.70	≤ 4.70
O=S(=O)(Nc1cccc2nonc12)c1ccc(Oc2cccnc2)cc1 [compound 86, N-2,1,3-benzoxadiazol-4-yl-4-(pyridin-3-yloxy)benzenesulfonamide]	–	≤ 4.70	–	≤ 4.70	≤ 4.70
O=S(=O)(Nc1cccc2nonc12)c1ccc(Oc2ccccc2)cn1 [compound 87, N-2,1,3-benzoxadiazol-4-yl-5-phenoxypyridine-2-sulfonamide]	–	≤ 4.70	–	≤ 4.70	≤ 4.70
CC(=O)N1CCN(c2ccc([N+](=O)[O-])c3nonc23)CC1 [compound 88, 4-(4-acetylpiperazin-1-yl)-7-nitro-2,1,3-benzoxadiazole]	–	≤ 4.70	–	≤ 4.70	≤ 4.70
O=S(=O)(Nc1ccc(Oc2ncccn2)c(Cl)c1)c1cccc2nonc12 [compound 91, N-[3-chloro-4-(pyrimidin-2-yloxy)phenyl]-2,1,3-benzoxadiazole-4-sulfonamide]	–	≤ 4.70	–	≤ 4.70	≤ 4.70
O=S(=O)(Nc1cccc2nonc12)c1ccc(Oc2ccccc2)cc1 [compound 93, N-2,1,3-benzoxadiazol-4-yl-4-phenoxybenzenesulfonamide]	≤ 4.70	4.70 to 6.00	≤ 4.70	–	–
O=[N+]([O-])c1ccc(Oc2ccc(NS(=O)(=O)c3cccc4nonc34)cc2)cc1 [compound 101, N-[4-(4-nitrophenoxy)phenyl]-2,1,3-benzoxadiazole-4-sulfonamide]	–	≤ 4.70	–	≤ 4.70	≤ 4.70
O=S(=O)(Nc1ccc(Oc2ccccc2)cc1)c1cccc2nonc12 [compound 102, N-(4-phenoxyphenyl)-2,1,3-benzoxadiazole-4-sulfonamide]	–	≤ 4.70	–	≤ 4.70	≤ 4.70
O=S(=O)(Nc1ccc(Oc2cc(C(F)(F)F)ccn2)cc1)c1cccc2nonc12 [compound 103, N-(4-{[4-(trifluoromethyl)pyridin-2-yl]oxy}phenyl)-2,1,3-benzoxadiazole-4-sulfonamide]	–	≤ 4.70	–	≤ 4.70	≤ 4.70
O=S(=O)(Nc1ccc(Oc2ccc(Cl)cc2)cc1)c1cccc2nonc12 [compound 104, N-[4-(4-chlorophenoxy)phenyl]-2,1,3-benzoxadiazole-4-sulfonamide]	–	≤ 4.70	–	≤ 4.70	≤ 4.70
O=[N+]([O-])c1ccc(N2CCN(c3ccc(Cl)c(C(F)(F)F)c3)CC2)c2nonc12 [compound 105, {4-[4-chloro-3-(trifluoromethyl)phenyl]piperazin-1-yl}-7-nitro-2,1,3-benzoxadiazole]	–	≤ 4.70	–	≤ 4.70	≤ 4.70
O=[N+]([O-])c1ccc(N2CCN(c3cccc(C(F)(F)F)c3)CC2)c2nonc12 [compound 106, 4-nitro-7-{4-[3-(trifluoromethyl)phenyl]piperazin-1-yl}-2,1,3-benzoxadiazole]	–	≤ 4.70	–	≤ 4.70	≤ 4.70
O=[N+]([O-])c1ccc(N2CCN(c3ccncc3)CC2)c2nonc12 [compound 108, 4-nitro-7-(4-pyridin-4-ylpiperazin-1-yl)-2,1,3-benzoxadiazole]	–	≤ 4.70	–	≤ 4.70	4.70 to 6.00
CN1CCN(c2ccc([N+](=O)[O-])c3nonc23)CC1 [compound 110, 4-(4-methylpiperazin-1-yl)-7-nitro-2,1,3-benzoxadiazole]	–	≤ 4.70	–	≤ 4.70	≤ 4.70
O=[N+]([O-])c1ccc(N2CCNCC2)c2nonc12 [compound 112, 4-nitro-7-piperazin-1-yl-2,1,3-benzoxadiazole]	–	≤ 4.70	–	≤ 4.70	≤ 4.70
O=S(=O)(Nc1cccc2nsnc12)c1ccc(Oc2cccnc2)cc1 [compound 116, N-2,1,3-benzothiadiazol-4-yl-4-(pyridin-3-yloxy)benzenesulfonamide]	–	≤ 4.70	–	≤ 4.70	4.70 to 6.00
N#Cc1cccnc1N1CCN(c2ccc([N+](=O)[O-])c3nonc23)CC1 [compound 118, 2-[4-(7-nitro-2,1,3-benzoxadiazol-4-yl)piperazin-1-yl]nicotinonitrile]	–	4.70 to 6.00	–	≤ 4.70	≤ 4.70
O=S(=O)(Oc1ccc(N2CCN(S(=O)(=O)c3cccc4nonc34)CC2)cc1)c1cccc2nonc12 [compound 139, 4-[4-(2,1,3-benzoxadiazol-4-ylsulfonyl)piperazin-1-yl]phenyl 2,1,3-benzoxadiazole-4-sulfonate]	–	4.70 to 6.00	–	≤ 4.70	≤ 4.70
O=[N+]([O-])c1ccc(N2CCN(c3ccccc3)CC2)c2nonc12 [compound 143, 4-nitro-7-(4-phenylpiperazin-1-yl)-2,1,3-benzoxadiazole]	–	≤ 4.70	–	≤ 4.70	≤ 4.70
O=[N+]([O-])c1ccc(N2CCN(c3c(Cl)cncc3Cl)CC2)c2nonc12 [compound 151, 4-[4-(3,5-dichloropyridin-4-yl)piperazin-1-yl]-7-nitro-2,1,3-benzoxadiazole]	–	4.70 to 6.00	–	≤ 4.70	≤ 4.70
Cc1cc(N2CCN(c3ccc([N+](=O)[O-])c4nonc34)CC2)c2ccccc2n1 [compound 152, 2-methyl-4-[4-(7-nitro-2,1,3-benzoxadiazol-4-yl)piperazin-1-yl]quinoline]	–	≤ 4.70	–	4.70 to 6.00	4.70 to 6.00
